According to BindingDB's records for PubMed 11082457 (Centre De Recherches De Croissy, 2000):

How the values were obtained:
[1] = molecular target: T1, Alpha-1B adrenergic receptor (Homo sapiens, UniProt P35368)
T1 sequence (P35368 whole entry): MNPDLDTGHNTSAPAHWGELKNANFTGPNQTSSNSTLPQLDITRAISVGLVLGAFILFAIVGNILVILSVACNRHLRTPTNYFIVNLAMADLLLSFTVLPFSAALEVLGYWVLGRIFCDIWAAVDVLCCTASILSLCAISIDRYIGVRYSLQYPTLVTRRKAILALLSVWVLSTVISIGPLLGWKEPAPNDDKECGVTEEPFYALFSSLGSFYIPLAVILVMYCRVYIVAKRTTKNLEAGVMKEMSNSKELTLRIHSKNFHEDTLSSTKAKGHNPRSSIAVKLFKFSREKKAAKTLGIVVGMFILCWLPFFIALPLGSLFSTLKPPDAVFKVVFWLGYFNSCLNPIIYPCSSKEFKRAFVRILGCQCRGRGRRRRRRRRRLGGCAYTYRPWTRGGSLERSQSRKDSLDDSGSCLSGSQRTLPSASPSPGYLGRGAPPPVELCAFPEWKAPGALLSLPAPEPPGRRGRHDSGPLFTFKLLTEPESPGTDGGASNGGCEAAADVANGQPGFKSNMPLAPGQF

[2] = molecular target: T2, Alpha-2C adrenergic receptor (Rattus norvegicus, UniProt P22086)
T2 sequence (P22086 whole entry): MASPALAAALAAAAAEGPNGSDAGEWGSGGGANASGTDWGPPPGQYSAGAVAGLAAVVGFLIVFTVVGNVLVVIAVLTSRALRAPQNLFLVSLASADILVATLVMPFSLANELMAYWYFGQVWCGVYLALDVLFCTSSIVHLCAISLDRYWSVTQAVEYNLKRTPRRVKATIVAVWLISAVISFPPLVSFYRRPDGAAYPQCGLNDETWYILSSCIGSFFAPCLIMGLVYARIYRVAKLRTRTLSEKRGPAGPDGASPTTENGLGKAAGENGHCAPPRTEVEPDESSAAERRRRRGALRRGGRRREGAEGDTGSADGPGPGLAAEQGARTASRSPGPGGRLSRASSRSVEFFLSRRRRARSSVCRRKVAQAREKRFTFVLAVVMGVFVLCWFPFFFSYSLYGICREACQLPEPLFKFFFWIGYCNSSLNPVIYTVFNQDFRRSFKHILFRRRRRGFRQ

[3] = molecular target: T3, Alpha-1A adrenergic receptor (Homo sapiens, UniProt P35348)
T3 sequence (P35348 whole entry): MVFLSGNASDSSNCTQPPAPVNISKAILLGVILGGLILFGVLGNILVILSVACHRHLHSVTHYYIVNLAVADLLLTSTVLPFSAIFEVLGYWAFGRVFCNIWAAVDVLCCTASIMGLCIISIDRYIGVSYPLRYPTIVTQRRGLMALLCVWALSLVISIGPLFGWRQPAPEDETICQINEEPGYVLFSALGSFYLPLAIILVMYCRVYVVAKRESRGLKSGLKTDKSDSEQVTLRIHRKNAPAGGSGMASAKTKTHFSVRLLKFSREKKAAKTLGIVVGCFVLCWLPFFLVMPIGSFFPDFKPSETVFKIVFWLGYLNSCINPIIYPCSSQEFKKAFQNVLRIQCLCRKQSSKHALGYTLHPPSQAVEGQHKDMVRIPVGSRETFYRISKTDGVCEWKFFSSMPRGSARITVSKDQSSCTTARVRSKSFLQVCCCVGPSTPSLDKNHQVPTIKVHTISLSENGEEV

[4] = molecular target: Sodium-dependent noradrenaline transporter (Homo sapiens, UniProt P23975)
[5] = molecular target: T4, Amine oxidase [flavin-containing] A (Rattus norvegicus, UniProt P21396)
T4 sequence (P21396 whole entry): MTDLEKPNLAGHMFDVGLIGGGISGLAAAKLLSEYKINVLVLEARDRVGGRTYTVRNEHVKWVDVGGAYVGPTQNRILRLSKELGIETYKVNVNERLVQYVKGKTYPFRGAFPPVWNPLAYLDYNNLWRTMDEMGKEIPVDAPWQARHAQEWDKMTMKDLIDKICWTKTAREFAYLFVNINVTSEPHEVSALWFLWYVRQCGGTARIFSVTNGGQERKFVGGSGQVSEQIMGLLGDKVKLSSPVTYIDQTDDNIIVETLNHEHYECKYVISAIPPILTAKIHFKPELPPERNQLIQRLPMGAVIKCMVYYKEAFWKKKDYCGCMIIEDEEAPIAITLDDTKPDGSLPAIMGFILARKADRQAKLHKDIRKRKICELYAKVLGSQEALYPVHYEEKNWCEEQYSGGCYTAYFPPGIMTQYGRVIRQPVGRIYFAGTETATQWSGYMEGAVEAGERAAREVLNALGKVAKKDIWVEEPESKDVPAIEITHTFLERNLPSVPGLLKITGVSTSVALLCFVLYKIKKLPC

[6] = molecular target: Nischarin (Rattus norvegicus, UniProt Q4G017)
[7] = molecular target: T5, Alpha-1D adrenergic receptor (Homo sapiens, UniProt P25100)
T5 sequence (P25100 whole entry): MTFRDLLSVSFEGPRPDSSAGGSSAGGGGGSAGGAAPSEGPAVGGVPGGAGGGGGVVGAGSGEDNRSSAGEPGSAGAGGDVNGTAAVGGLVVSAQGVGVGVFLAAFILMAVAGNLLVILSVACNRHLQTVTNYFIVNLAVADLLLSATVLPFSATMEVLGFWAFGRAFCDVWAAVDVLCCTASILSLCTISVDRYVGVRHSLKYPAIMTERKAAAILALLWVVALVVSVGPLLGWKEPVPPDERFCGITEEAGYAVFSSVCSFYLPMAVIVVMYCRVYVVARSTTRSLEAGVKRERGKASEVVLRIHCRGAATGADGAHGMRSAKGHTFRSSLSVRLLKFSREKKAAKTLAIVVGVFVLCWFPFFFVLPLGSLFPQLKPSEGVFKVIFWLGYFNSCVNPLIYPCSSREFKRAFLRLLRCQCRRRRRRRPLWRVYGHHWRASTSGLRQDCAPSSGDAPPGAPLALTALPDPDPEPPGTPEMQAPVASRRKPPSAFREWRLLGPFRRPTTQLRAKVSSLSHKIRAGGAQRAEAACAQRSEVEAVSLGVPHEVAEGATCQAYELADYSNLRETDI

Nischarin, sequence (Q4G017 whole entry): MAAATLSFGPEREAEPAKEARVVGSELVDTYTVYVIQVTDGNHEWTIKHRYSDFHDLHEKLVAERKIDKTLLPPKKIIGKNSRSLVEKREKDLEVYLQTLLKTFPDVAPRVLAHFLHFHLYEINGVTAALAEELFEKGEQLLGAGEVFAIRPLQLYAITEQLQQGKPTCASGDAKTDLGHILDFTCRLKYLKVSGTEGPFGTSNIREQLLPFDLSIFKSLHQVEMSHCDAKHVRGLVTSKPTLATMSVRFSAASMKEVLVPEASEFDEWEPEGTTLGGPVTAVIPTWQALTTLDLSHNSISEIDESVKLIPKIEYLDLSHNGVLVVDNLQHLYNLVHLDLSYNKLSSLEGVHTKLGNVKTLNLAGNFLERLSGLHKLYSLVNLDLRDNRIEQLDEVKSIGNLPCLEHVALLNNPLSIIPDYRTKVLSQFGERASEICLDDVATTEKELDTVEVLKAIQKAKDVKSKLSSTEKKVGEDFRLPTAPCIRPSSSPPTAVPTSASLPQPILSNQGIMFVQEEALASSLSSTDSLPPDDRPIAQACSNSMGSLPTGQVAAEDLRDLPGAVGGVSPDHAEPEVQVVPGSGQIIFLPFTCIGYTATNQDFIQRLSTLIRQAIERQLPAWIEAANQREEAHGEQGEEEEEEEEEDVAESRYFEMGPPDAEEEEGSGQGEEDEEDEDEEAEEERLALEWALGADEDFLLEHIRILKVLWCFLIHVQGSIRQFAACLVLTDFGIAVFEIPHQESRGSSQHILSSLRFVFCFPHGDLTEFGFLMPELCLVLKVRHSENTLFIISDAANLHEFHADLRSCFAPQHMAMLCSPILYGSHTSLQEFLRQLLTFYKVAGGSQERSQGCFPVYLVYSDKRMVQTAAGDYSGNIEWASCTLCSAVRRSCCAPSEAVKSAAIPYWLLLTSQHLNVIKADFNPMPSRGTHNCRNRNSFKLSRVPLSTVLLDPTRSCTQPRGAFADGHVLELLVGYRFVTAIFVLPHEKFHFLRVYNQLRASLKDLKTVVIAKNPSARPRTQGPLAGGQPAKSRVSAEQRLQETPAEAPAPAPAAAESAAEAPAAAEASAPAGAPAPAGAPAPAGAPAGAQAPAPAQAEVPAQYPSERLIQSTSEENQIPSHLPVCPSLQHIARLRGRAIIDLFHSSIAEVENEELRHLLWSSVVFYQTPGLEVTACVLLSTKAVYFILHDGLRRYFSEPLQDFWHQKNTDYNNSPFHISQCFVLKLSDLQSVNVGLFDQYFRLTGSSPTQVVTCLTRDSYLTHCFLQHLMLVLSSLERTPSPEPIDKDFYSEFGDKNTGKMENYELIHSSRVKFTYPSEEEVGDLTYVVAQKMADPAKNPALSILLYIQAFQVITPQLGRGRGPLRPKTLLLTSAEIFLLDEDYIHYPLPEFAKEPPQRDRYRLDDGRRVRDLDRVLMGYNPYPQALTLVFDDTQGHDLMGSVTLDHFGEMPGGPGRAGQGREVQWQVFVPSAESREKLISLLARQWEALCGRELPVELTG
Sodium-dependent noradrenaline transporter, sequence (P23975 whole entry): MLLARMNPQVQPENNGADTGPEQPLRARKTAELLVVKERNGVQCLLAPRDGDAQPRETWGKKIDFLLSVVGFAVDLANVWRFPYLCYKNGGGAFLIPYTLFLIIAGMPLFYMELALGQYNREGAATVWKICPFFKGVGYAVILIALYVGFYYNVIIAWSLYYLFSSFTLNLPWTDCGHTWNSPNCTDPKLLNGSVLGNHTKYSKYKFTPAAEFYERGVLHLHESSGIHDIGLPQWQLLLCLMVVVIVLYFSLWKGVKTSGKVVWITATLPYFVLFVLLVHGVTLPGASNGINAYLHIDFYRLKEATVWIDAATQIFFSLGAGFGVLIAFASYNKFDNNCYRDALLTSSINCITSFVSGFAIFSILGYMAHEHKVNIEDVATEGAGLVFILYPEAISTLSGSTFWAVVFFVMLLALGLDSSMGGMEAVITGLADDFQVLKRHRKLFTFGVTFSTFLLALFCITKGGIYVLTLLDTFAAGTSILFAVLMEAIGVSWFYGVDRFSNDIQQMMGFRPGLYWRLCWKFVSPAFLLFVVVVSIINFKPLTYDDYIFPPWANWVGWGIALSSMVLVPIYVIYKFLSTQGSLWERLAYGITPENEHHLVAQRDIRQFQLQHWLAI

Cc1cccc([C@@H](C)c2cnc[nH]2)c1C showed a Ki [1] of 316 nM, a Ki [2] of 1 nM and a Ki [3] of 200 nM. It also gave a Ki [4] of 1000 nM, a Ki [5] of 1000 nM and a Ki [6] of 50.1 nM. It also gave a Ki [7] of 79.4 nM.
For NC1=NC2(CCc3ccccc3C2)CO1 (centres undefined) [S18616], the Ki [1] was 20 nM, the Ki [2] was 0.159 nM and the Ki [3] was 3.98 nM. For the same molecule, the Ki [4] was 1000 nM, the Ki [5] was 1000 nM and the Ki [6] was 79.4 nM. The Ki [7] was 25.1 nM.
